Assay results published in patent US20250313548A1 (Actio Biosciences, Inc., priority 2023, published 2025).

target: human, KCNT1 (Homo sapiens (Human), UniProt Q5JUK3); assay: FLIPR Tl/K Flux Assay; type: cell-based; conditions: HEK293 cells stably expressing human KCNT1; Tl+ flux stimulated with EC80 of agonist Loxapine
Outline: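 Inhibition values come from a Hill-equation fit of % inhibition versus log concentration, using normalized fluorescence (Fmax/Fmin) over a 160 s read. The read followed stimulation with Tl+ plus EC80 agonist loxapine after 30 min compound pre-incubation at 25 °C. Cells were KCNT1-expressing HEK293, dye-loaded 1 h in pH 7.4 HEPES/HBSS with 5 mM probenecid.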

human, KCNT1, sequence (Q5JUK3 whole entry): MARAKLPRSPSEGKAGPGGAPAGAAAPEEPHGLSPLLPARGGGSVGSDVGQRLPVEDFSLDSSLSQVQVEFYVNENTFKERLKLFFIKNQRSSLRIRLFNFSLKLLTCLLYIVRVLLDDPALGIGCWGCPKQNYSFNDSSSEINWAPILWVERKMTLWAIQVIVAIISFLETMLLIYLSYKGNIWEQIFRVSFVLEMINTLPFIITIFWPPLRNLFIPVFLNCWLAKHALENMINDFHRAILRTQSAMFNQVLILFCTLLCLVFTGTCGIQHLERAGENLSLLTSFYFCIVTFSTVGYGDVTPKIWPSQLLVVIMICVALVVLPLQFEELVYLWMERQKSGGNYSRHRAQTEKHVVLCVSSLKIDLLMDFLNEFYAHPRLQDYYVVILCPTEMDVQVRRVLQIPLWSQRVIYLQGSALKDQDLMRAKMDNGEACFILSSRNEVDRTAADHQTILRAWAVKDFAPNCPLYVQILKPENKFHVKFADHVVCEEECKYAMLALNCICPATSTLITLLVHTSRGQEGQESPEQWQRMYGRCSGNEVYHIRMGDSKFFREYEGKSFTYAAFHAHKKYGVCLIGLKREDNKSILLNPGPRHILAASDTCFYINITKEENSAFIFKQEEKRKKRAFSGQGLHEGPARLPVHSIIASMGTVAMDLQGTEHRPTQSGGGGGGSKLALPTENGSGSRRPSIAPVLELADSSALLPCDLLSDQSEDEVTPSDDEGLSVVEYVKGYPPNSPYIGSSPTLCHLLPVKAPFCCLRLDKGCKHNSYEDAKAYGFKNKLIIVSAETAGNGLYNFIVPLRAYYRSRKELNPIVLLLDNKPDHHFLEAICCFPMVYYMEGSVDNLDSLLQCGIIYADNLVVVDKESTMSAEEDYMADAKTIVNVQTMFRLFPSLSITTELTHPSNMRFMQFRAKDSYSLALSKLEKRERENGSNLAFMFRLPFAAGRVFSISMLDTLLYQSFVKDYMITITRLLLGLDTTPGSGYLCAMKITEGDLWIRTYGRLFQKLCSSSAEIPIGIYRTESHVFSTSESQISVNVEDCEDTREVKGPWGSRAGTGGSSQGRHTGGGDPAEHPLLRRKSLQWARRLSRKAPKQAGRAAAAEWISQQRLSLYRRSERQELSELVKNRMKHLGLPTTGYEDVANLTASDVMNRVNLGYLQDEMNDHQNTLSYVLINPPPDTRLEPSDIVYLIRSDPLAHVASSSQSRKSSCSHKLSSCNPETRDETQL

Row | Structure (SMILES) | IC50 [nM]
1 | Cc1cc(-c2cc3n(n2)CCC[C@@H]3NC(=O)c2cc(C(F)(F)F)nn2C)cc(C(F)(F)F)n1 [Compound I-432a] | < 250
2 | CCc1cc(C#N)cc(C(=O)N[C@H]2CCn3nc(-c4ccnc(C(F)(F)F)c4)cc32)c1 [Compound I-200a, (S)-3-Cyano-5-ethyl-N-(2-(2-(trifluoromethyl)pyridin-4-yl)-5,6-dihydro-4H-pyrrolo[1,2-b]pyrazol-4-yl)benzamide] | < 250
3 | Cc1ccn2ncc(C(=O)N[C@H]3CCCn4nc(-c5ccnc(C(F)(F)F)c5)cc43)c2n1 [Compound I-440a] | 500 to 1000
4 | Cn1nc(C(F)(F)F)cc1C(=O)N[C@H]1CCn2nc(-c3ccnc(C(F)(F)F)c3)cc21 [Compound I-123a, (S)-1-methyl-3-(trifluoromethyl)-N-(2-(2-(trifluoromethyl)pyridin-4-yl)-5,6-dihydro-4H-pyrrolo[1,2-b]pyrazol-4-yl)-1H-pyrazole-5-carboxamide] | < 250
5 | Cn1nc(C(F)(F)F)cc1C(=O)N[C@@H]1CCn2nc(-c3ccnc(C(F)(F)F)c3)cc21 [Compound I-123b, (R)-1-methyl-3-(trifluoromethyl)-N-(2-(2-(trifluoromethyl)pyridin-4-yl)-5,6-dihydro-4H-pyrrolo[1,2-b]pyrazol-4-yl)-1H-pyrazole-5-carboxamide] | 250 to 500
6 | COc1cc(-c2nc3c(o2)CCC[C@@H]3NC(=O)c2cc(C)cc(C(F)(F)F)c2)ccn1 [Compound I-248a] | < 250
7 | N#Cc1cc(F)cc(C(=O)N[C@H]2CCCn3nc(-c4ccnc(C(F)(F)F)c4)cc32)c1 [Compound I-320a, (S)-3-Cyano-5-fluoro-N-(2-(2-(trifluoromethyl)pyridin-4-yl)-4,5,6,7-tetrahydropyrazolo[1,5-a]pyridin-4-yl)benzamide] | < 250
8 | CCOc1cc(-n2cc3c(n2)CCCC[C@@H]3NC(=O)c2cc(C(F)(F)F)nn2C)ccn1 [Compound I-360a] | < 250
9 | O=C(N[C@@H]1CCCCc2nn(-c3ccnc(C4CC4)c3)cc21)c1cccc(C(F)(F)F)c1 [Compound I-60b] | 500 to 1000
10 | O=C(N[C@H]1CCn2nc(-c3ccnc(C(F)(F)F)c3)cc21)c1cn(C(F)(F)F)nc1C(F)F [Compound I-484a, (S)-3-(Difluoromethyl)-1-(trifluoromethyl)-N-(2-(2-(trifluoromethyl)pyridin-4-yl)-5,6-dihydro-4H-pyrrolo[1,2-b]pyrazol-4-yl)-1H-pyrazole-4-carboxamide] | < 250

Now from value to compound:

Row | IC50 [nM] | Structure (SMILES)
11 | < 250 | O=C(N[C@H]1CCn2nc(-c3ccnc(C(F)(F)F)c3)cc21)C12CC(F)(C1)C2 [Compound I-489a, (S)-3-Fluoro-N-(2-(2-(trifluoromethyl)pyridin-4-yl)-5,6-dihydro-4H-pyrrolo[1,2-b]pyrazol-4-yl)bicyclo[1.1.1]pentane-1-carboxamide]
12 | < 250 | CC(F)(F)c1cc(-c2cc3n(n2)CC[C@@H]3NC(=O)c2cnn(C(F)(F)F)c2)ccn1 [Compound I-538a, (S)-N-(2-(2-(1,1-Difluoroethyl)pyridin-4-yl)-5,6-dihydro-4H-pyrrolo[1,2-b]pyrazol-4-yl)-1-(trifluoromethyl)-1H-pyrazole-4-carboxamide]
13 | < 250 | N#Cc1cccc(C(=O)N[C@H]2CCn3cc(-c4ccnc(C(F)(F)F)c4)cc32)c1 (stereo in doubt) [Compound I-276a, 3-Cyano-N-(6-(2-(trifluoromethyl)pyridin-4-yl)-2,3-dihydro-1H-pyrrolizin-1-yl)benzamide]
14 | < 250 | N#Cc1cc(C(=O)N[C@H]2CCCn3nc(-c4ccnc(C(F)(F)F)c4)cc32)ccc1F [Compound I-343a, (S)-3-Cyano-4-fluoro-N-(2-(2-(trifluoromethyl)pyridin-4-yl)-4,5,6,7-tetrahydropyrazolo[1,5-a]pyridin-4-yl)benzamide]
15 | < 250 | O=C(N[C@H]1CCCn2nc(-c3ccnc(C4CC4)c3)cc21)c1ccnc(OC(F)(F)F)c1 [Compound I-193a, (S)-N-(2-(2-Cyclopropylpyridin-4-yl)-4,5,6,7-tetrahydropyrazolo[1,5-a]pyridin-4-yl)-2-(trifluoromethoxy)isonicotinamide]
